Data: patent publication US4312870A, “Pyrazoloquinolines” (Ciba-Geigy Corporation, priority 1980, dated 1982)

Target: Diazepam Receptor
Test: Diazepam Receptor Binding Assay in vitro (tritiated diazepam, rat fore-brain membranes)
Conditions: membranes from rat fore-brain, 0°-5°, pH=7.5, determined graphically; read-out: IC50, concentration required to inhibit the specific binding of 2 nM of tritiated diazepam by 50%
Procedure: The anxiolytic effects of said new compounds can also be estimated by the Diazepam Receptor Binding Assay in vitro, e.g. as described in Nature 266, 732 (1977) or Proc. Nat. Acad. Sci. USA 74, 3805 (1977). Diazepam binds specifically and with high affinity to crude synaptosomal membrane preparations from rat fore-brain. […] When tritiated diazepam is used, the interaction of other drugs with said receptor can be readily assessed thus: Membranes from rat fore-brain are incubated at 0°-5° with tritiated diazepam and various concentrations of the test substances in a physiological medium at the pH=7.5. The membranes, containing the receptors with various amounts of tritiated diazepam, are filtered onto glass fiber filters, which are then […] in a liquid scintillation counter.

| Structure (SMILES) | IC50 |
| --- | --- |
| CNC1=Nc2ccc(Cl)cc2C(c2ccccc2)=[N+]([O-])C1 [chlordiazepoxide] | 400 nM |
| CN1C(=O)CN=C(c2ccccc2)c2cc(Cl)ccc21 [diazepam] | 5 nM |
